Tests used:
Format in all cases: in vivo
[1] = test system: larvae of the mustard beetle (Phaedon cochleariae); experiment: Phaedon test (PHAECO spray treatment); details: 500 g/ha, Chinese cabbage discs sprayed
Description: [table] To produce a suitable preparation of active compound, 1 part by weight of active compound is mixed with the stated amounts of solvent and emulsifier, and the concentrate is diluted with emulsifier-containing water to the desired concentration. Discs of Chinese cabbage (Brassica pekinensis) are sprayed with a preparation of active compound of the desired concentration and, after drying, populated with larvae of the mustard beetle (Phaedon cochleariae). After the desired period of time, the effect in % is determined. 100% means that all beetle larvae have been killed; 0% means that none of the beetle larvae have been killed.

[2] = test system: adult fleas (Ctenocephalides felis); experiment: Ctenocephalides felis; oral (CTECFE); details: 4 ppm in citrated cattle blood
Description: [table] To produce a suitable preparation of active compound, 1 part by weight of active compound is mixed with the stated amount of solvent. Part of the concentrate is diluted with citrated cattle blood, and the desired concentration is prepared. 20 unfed adult fleas (Ctenocephalides felis) are placed into a chamber whose top and bottom ends are closed with gauze. A metal cylinder whose bottom end is closed with parafilm is placed onto the chamber. The cylinder contains the blood/active compound preparation, which can be taken up by the fleas through the parafilm membrane. The blood is warmed to 37° C., but the flea chamber is at room temperature. After the desired period of time, the kill in % is determined. 100% means that all fleas have been killed; 0% means that none of the fleas have been killed.

Boophilus microplus = Boophilus microplus test (BOOPMI injection); details: 20 μg/Tier injected into abdomen, 100% = no tick has laid fertile eggs
Description: [table] To produce a suitable preparation of active compound, 1 part by weight of active compound is mixed with the stated amounts of solvent, and the concentrate is diluted with solvent to the desired concentration. The solution of active compound is injected into the abdomen (Boophilus microplus), and the animals are transferred into dishes and kept in a temperature-controlled room. After the desired period of time, the effect in % is determined. 100% means that no tick has laid any fertile eggs.

[3] = test system: green peach aphid (Myzus persicae); experiment: Myzus test (MYZUPE spray treatment); details: Chinese cabbage discs sprayed
Description: [table] To produce a suitable preparation of active compound, 1 part by weight of active compound is mixed with the stated amounts of solvent and emulsifier, and the concentrate is diluted with emulsifier-containing water to the desired concentration. Discs of Chinese cabbage (Brassica pekinensis) which are infected by all stages of the green peach aphid (Myzus persicae) are sprayed with a preparation of active compound of the desired concentration. After the desired period of time, the effect in % is determined. 100% means that all aphids have been killed; 0% means that none of the aphids have been killed. [table] To produce a suitable preparation of active compound, 1 part by weight of active compound is mixed with the stated amounts of solvent and emulsifier, and the concentrate is diluted with emulsifier-containing water to the desired concentration. Discs of Chinese cabbage (Brassica pekinensis) which are infected by all stages of the green peach aphid (Myzus persicae) are sprayed with a preparation of active compound of the desired concentration. After the desired period of time, the effect in % is determined. 100% means that all aphids have been killed; 0% means that none of the aphids have been killed.

[4] = test system: green peach aphid (Myzus persicae); experiment: Myzus persicae test, hydroponic treatment (MYZUPE sys.); details: 4 ppm in water (mg/l), pea plant
Description: [table] To produce a suitable preparation of active compound, 1 part by weight of active compound is mixed with the stated amounts of solvent and emulsifier, and the concentrate is diluted with water to the desired concentration. The preparation of active compound is mixed with water. The stated concentration refers to the amount of active compound per volume unit of water (mg/l=ppm). The treated water is filled into containers housing a pea plant (Pisum sativum) which is then infected with the green peach aphid (Myzus persicae). After the desired period of time, the kill in % is determined. 100% means that all aphids have been killed; 0% means that none of the aphids have been killed.

[5] = test system: cotton aphid (Aphis gossypii); experiment: Aphis gossypii test (APHIGO), leaf dip; details: 0.8 ppm, cotton leaves dipped
Description: [table] To produce a suitable preparation of active compound, 1 part by weight of active compound is mixed with the stated amounts of solvent and emulsifier, and the concentrate is diluted with emulsifier-containing water to the desired concentration. Cotton leaves (Gossypium hirsutum) which are heavily infested by the cotton aphid (Aphis gossypii) are treated by being dipped into the preparation of active compound of the desired concentration. After the desired period of time, the kill in % is determined. 100% means that all aphids have been killed; 0% means that none of the aphids have been killed.

Meloidogyne incognita = experiment: Meloidogyne test (MELGIN spray treatment); details: 4 ppm, nematicidal activity by formation of galls on lettuce roots (100% = no galls)
Description: [table] To produce a suitable preparation of active compound, 1 part by weight of active compound is mixed with the stated amounts of solvent, and the concentrate is diluted with water to the desired concentration. Containers are filled with sand, active compound solution, Meloidogyne incognita egg/larvae suspension and lettuce seeds. The lettuce seeds germinate and the plants develop. On the roots, galls are formed. After the desired period of time, the nematicidal activity is determined by the formation of galls in %. 100% means that no galls were found; 0% means that the number of galls on the treated plants corresponds to that of the untreated controls.

[6] = test system: green peach aphid (Myzus persicae); experiment: Myzus test; oral (MYZUPE O); details: 0.0064 ppm, oral uptake by sucking
Description: Myzus Test; Oral; (MYZUPE O) Solvent: 80 parts by weight of acetone To produce a suitable preparation of active compound, 1 part by weight of active compound is mixed with the stated amounts of solvent, and the concentrate is diluted with water to the desired concentration. Containers are populated with all stages of the green peach aphid (Myzus persicae), treatment is by sucking at the preparation of active compound of the desired concentration. After the desired period of time, the effect in % is determined. 100% means that all aphids have been killed; 0% means that none of the aphids have been killed.

[7] = test system: larvae of the banded cucumber beetle (Diabrotica balteata); experiment: Diabrotica balteata test, larvae in soil (DIABBA); details: 2 ppm in soil (mg/l), efficacy calculated from emerged maize plants
Description: [table] To produce a suitable preparation of active compound, 1 part by weight of active compound is mixed with the stated amounts of solvent and emulsifier, and the concentrate is diluted with water to the desired concentration. The active compound preparation is mixed with soil. The stated concentration refers to the amount of active compound per volume unit of soil (mg/l=ppm). The treated soil is filled into pots, and 5 maize corns are placed into each pot. 3 days after sowing, larvae of the banded cucumber beetle (Diabrotica balteata) are placed into the treated soil. After the desired period of time, the kill in % is determined. The efficacy is calculated from the number of maize plants that have emerged.

Lucilia cuprina larvae = experiment: Lucilia cuprina test (LUCICU); details: 4 ppm, treated horse meat
Description: [table] To produce a suitable preparation of active compound, 1 part by weight of active compound is mixed with the stated amounts of solvent, and the concentrate is diluted with water to the desired concentration. Containers containing horse meat treated with the preparation of active compound of the desired concentration are populated with Lucilia cuprina larvae. After the desired period of time, the kill in % is determined. 100% means that all larvae have been killed; 0% means that none of the larvae have been killed.

[8] = 4 g/ha, Biological Examples table
[9] = 20 g/ha, Biological Examples table
[10] = 100 g/ha, Biological Examples table

O=C1C=C(N(Cc2cnc(Cl)c(Cl)c2)C2CC2)CO1 [Example 11]
Kill rate in % after 7 days [1]: 100% | Kill rate in % after 2 days [2]: 50% | Kill rate in % after 7 days (Boophilus microplus): 50% | Kill rate in % after 5 days [3, 8]: 100% | Kill rate in % after 5 days ([3]; 100 g/ha, comparative table): 100%

CN(Cc1cnc(Cl)c(I)c1)C1=CC(=O)OC1 [Example 19]
Kill rate in % after 5 days [3, 9]: 70%

CN(Cc1cnc(Br)c(F)c1)C1=CC(=O)OC1 [Example 24]
Kill rate in % after 5 days [4]: 100% | Kill rate in % after 5 days [3, 8]: 100%

CN(Cc1cnc(Cl)c(Br)c1)C1=CC(=O)OC1 [Example 14]
Kill rate in % after 5 days [3, 9]: 100%

CC1OC(=O)C=C1N(C)Cc1cnc(Cl)c(Cl)c1 (centres unmarked) [Example 7, 4-[[(5,6-dichloropyridin-3-yl)methyl](methyl)amino]-5-methylfuran-2(5H)-one]
Kill rate in % after 5 days [3, 10]: 90%

CN(Cc1cnc(Br)c(Br)c1)C1=CC(=O)OC1 [Example 22]
Kill rate in % after 5 days [4]: 100%

CCN(Cc1cnc(Cl)c(C)c1)C1=CC(=O)OC1 [Example 20]
Kill rate in % after 7 days (Boophilus microplus): 30%

O=C1C=C(N(Cc2cnc(Cl)nc2)C2CC2)CO1 [Example 6, 4-[[(2-Chloropyrimidin-5-yl)methyl](cyclopropyl)amino]furan-2(5H)-one]
Kill rate in % after 5 days [3, 9]: 100%

Cc1cc(CN(C2=CC(=O)OC2)C2CC2)cnc1Cl [Example 12]
Kill rate in % after 6 days [5]: 50%

O=C1C=C(N(Cc2cnc(Cl)c(Br)c2)C2CC2)CO1 [Example 15]
Kill rate in % after 6 days [5]: 40% | Kill rate in % after 14 days (Meloidogyne incognita): 70%

CN(Cc1cnc(Cl)c(C#N)c1)C1=CC(=O)OC1 [Example 18]
Kill rate in % after 5 days [3, 10]: 100%

CN(Cc1cnc(Cl)c(Cl)c1)C1=CC(=O)OC1 [Example 10, 4-[[(5,6-dichloropyridin-3-yl)methyl](methyl)amino]furan-2(5H)-one]
Kill rate in % after 7 days [1]: 100% | Kill rate in % after 5 days [3, 8]: 100% | Kill rate in % after 5 days ([3]; 20 g/ha, comparative table): 100%

O=C1C=C(N(Cc2cnc(Br)c(Br)c2)C2CC2)CO1 [Example 21]
Kill rate in % after 5 days [3, 9]: 80%

CON(Cc1cnc(Cl)c(Cl)c1)C1=CC(=O)OC1 [Example 2, 4-[[(5,6-Dichloropyridin-3-yl)methyl](methoxy)amino]furan-2(5H)-one]
Kill rate in % after 7 days (Boophilus microplus): 30%

CN(Cc1cnc(Br)c(Cl)c1)C1=CC(=O)OC1 [Example 4, 4-[[(6-Bromo-5-chloropyridin-3-yl)methyl](methyl)amino]furan-2(5H)-one]
Kill rate in % after 5 days [4]: 100%

Cc1cc(CN(C)C2=CC(=O)OC2)cnc1Cl [Example 13]
Kill rate in % after 5 days [6]: 70%

O=C1C=C(N(Cc2cnc(Cl)c(I)c2)C2CC2)CO1 [Example 3, 4-[[(6-Chloro-5-iodopyridin-3-yl)methyl](cyclopropyl)amino]furan-2(5H)-one]
Kill rate in % after 7 days (Boophilus microplus): 40%

CN(Cc1cnc(Cl)c(F)c1)C1=CC(=O)OC1 [Example 1, 4-[[(6-Chloro-5-fluoropyridin-3-yl)methyl](methyl)amino]furan-2(5H)-one]
Kill rate in % after 10 days [7]: 100% | Kill rate in % after 7 days (Boophilus microplus): 30%

O=C1C=C(N(Cc2cnc(Br)c(F)c2)C2CC2)CO1 [Example 25]
Kill rate in % after 2 days (Lucilia cuprina larvae): 100% | Kill rate in % after 5 days [3, 8]: 100%

CN(Cc1cnc(Cl)nc1)C1=CC(=O)OC1 [Example 5, 4-[[(2-Chloropyrimidin-5-yl)methyl](methyl)amino]furan-2(5H)-one]
Kill rate in % after 5 days [3, 8]: 100%

CCN(Cc1cnc(Cl)c(Cl)c1)C1=CC(=O)OC1 [Example 16]
Kill rate in % after 5 days [3, 9]: 100%

O=C1C=C(N(Cc2cnc(Cl)c(Cl)c2)C2CC2)CC1 [Example 17]
Kill rate in % after 5 days [3, 10]: 100%

CN(Cc1cnc(Cl)c(Cl)c1)C1=C(Cl)C(=O)OC1 [Example 8, 3-Chloro-4-[[(5,6-dichloropyridin-3-yl)methyl](methyl)amino]furan-2(5H)-one]
Kill rate in % after 5 days [3, 10]: 80%

O=C1C=C(N(Cc2cnc(Cl)c(F)c2)C2CC2)CO1 [Example 26]
Kill rate in % after 2 days [2]: 60%

O=C1C=C(N(Cc2cnc(Br)c(Cl)c2)C2CC2)CO1 [Example 23]
Kill rate in % after 7 days (Boophilus microplus): 30%

— patent publication US8106212B2, “Substituted enaminocarbonyl compounds” (Bayer Cropscience AG, priority 2006, dated 2012)
